“And” between values parts separate entries of the source, which are not always exact repeats. Identical values can stand only once. Values belong to the molecule of their own block, whether it stands above or below them.
System: SYO-1 complex spheroid growth, percent test/control
Assay: Anticancer human tumor SYO-1 cell line growth inhibition [Asc];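 also: compound exposure lasted 7 days after spheroids grew 3 days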;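 as to viability, T/C: 100% = DMSO vehicle control viability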
Conditions: for viability, T/C: stronger effect = lower value
Summary of the method: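 Stromal components (HUVEC and hMSC) are co-assembled with the cancer cells into multicellular spheroids. Drugs are then added singly or paired, at concentrations falling by half-log increments from a clinically achievable maximum, capped at 10 microM without known Cmax.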

[1] = curve of first compound, second compound 0.0316 µM
[2] = curve of first compound, second compound 0.1 µM
[3] = curve of first compound, second compound 0.316 µM
[4] = curve of first compound, second compound 1 µM
[5] = curve of first compound, second compound 3.16 µM
[6] = curve of first compound, second compound 10 µM

- IC50 [1]: > 3000 nM
- IC50 [2]: > 3000 nM
- IC50 [3]: > 3000 nM
- IC50 [4]: > 3000 nM
- IC50 [5]: > 3000 nM
- IC50 [6]: > 3000 nM
SMILES: Cc1nc(N2CCC3(CC2)COC(C)C3N)c(CO)nc1Sc1ccnc(N)c1Cl (configuration not stated) + Cc1c(S(C)(=O)=O)c(-c2cc(F)cc(N3CCN(c4ccc(NS(=O)(=O)c5ccc(NC(CCN6CCC(C(=O)OCCCP(=O)(O)O)CC6)CSc6ccccc6)c(S(=O)(=O)C(F)(F)F)c5)cc4)CC3)c2)c(-c2ccc(Cl)cc2)n1C(C)C
- viability, T/C (second compound 0.0316 µM, first compound 0.00949 µM): 93.6%
- viability, T/C (second compound 0.0316 µM, first compound 0.03 µM): 99.6%
- viability, T/C (second compound 0.0316 µM, first compound 0.0949 µM): 91.7%
- viability, T/C (second compound 0.0316 µM, first compound 0.3 µM): 98.8%
- viability, T/C (second compound 0.0316 µM, first compound 0.949 µM): 110%
- viability, T/C (second compound 0.0316 µM, first compound 3 µM): 102%
- viability, T/C (second compound 0.1 µM, first compound 0.00949 µM): 96%
- viability, T/C (second compound 0.1 µM, first compound 0.03 µM): 94.8%
- viability, T/C (second compound 0.1 µM, first compound 0.0949 µM): 97.3%
- viability, T/C (second compound 0.1 µM, first compound 0.3 µM): 103%
- viability, T/C (second compound 0.1 µM, first compound 0.949 µM): 100%
- viability, T/C (second compound 0.1 µM, first compound 3 µM): 93.7%
- viability, T/C (second compound 0.316 µM, first compound 0.00949 µM): 91.3%
- viability, T/C (second compound 0.316 µM, first compound 0.03 µM): 88.2%
- viability, T/C (second compound 0.316 µM, first compound 0.0949 µM): 98.9%
- viability, T/C (second compound 0.316 µM, first compound 0.3 µM): 97.5%
- viability, T/C (second compound 0.316 µM, first compound 0.949 µM): 103%
- viability, T/C (second compound 0.316 µM, first compound 3 µM): 92.3%
- viability, T/C (second compound 1 µM, first compound 0.00949 µM): 92.2%
- viability, T/C (second compound 1 µM, first compound 0.03 µM): 95.7%
- viability, T/C (second compound 1 µM, first compound 0.0949 µM): 93.2%
- viability, T/C (second compound 1 µM, first compound 0.3 µM): 99.9%
- viability, T/C (second compound 1 µM, first compound 0.949 µM): 98.7%
- viability, T/C (second compound 1 µM, first compound 3 µM): 91%
- viability, T/C (second compound 3.16 µM, first compound 0.00949 µM): 95.3%
- viability, T/C (second compound 3.16 µM, first compound 0.03 µM): 91.2%
- viability, T/C (second compound 3.16 µM, first compound 0.0949 µM): 89%
- viability, T/C (second compound 3.16 µM, first compound 0.3 µM): 91.4%
- viability, T/C (second compound 3.16 µM, first compound 0.949 µM): 95.5%
- viability, T/C (second compound 3.16 µM, first compound 3 µM): 89.3%
- viability, T/C (second compound 10 µM, first compound 0.00949 µM): 84%
- viability, T/C (second compound 10 µM, first compound 0.03 µM): 82.8%
- viability, T/C (second compound 10 µM, first compound 0.0949 µM): 94.8%
- viability, T/C (second compound 10 µM, first compound 0.3 µM): 87.2%
- viability, T/C (second compound 10 µM, first compound 0.949 µM): 95.8%
- viability, T/C (second compound 10 µM, first compound 3 µM): 78.5%

- IC50 (compound alone, run of 10/24/2022): > 1000 nM
- IC50 (compound alone, run of 11/15/2022): > 1000 nM
- IC50 (curve of compound): > 1000 nM
SMILES: CNC(C)C(=O)NC1CN(S(=O)(=O)c2cccc(S(=O)(=O)N3CCC4CCC(C(=O)NC(c5ccccc5)c5ccccc5)N4C(=O)C(NC(=O)C(C)NC)C3)c2)CCC2CCC(C(=O)NC(c3ccccc3)c3ccccc3)N2C1=O (configuration not stated)
- viability, T/C (compound 0.00316 µM): 109% and 90.1% and 99.2%
- viability, T/C (compound 0.01 µM): 102% [middle of 14 runs]
- viability, T/C (compound 0.0316 µM): 98.2% [middle of 14 runs]
- viability, T/C (compound 0.316 µM): 98.7% [middle of 14 runs]
- viability, T/C (compound 1 µM): 96.6% [middle of 14 runs]

- IC50 [1]: 19.3 nM
- IC50 [2]: 18.1 nM
- IC50 [3]: 15.3 nM
- IC50 [4]: 10.2 nM
- IC50 [5]: 5.98 nM
- IC50 [6]: 4.59 nM
SMILES: Cn1ncnc1[C@H]1c2n[nH]c(=O)c3cc(F)cc(c23)N[C@@H]1c1ccc(F)cc1 + Cc1c(S(C)(=O)=O)c(-c2cc(F)cc(N3CCN(c4ccc(NS(=O)(=O)c5ccc(NC(CCN6CCC(C(=O)OCCCP(=O)(O)O)CC6)CSc6ccccc6)c(S(=O)(=O)C(F)(F)F)c5)cc4)CC3)c2)c(-c2ccc(Cl)cc2)n1C(C)C
- viability, T/C (second compound 0.0316 µM, first compound 0.000316 µM): 108%
- viability, T/C (second compound 0.0316 µM, first compound 0.001 µM): 96.5%
- viability, T/C (second compound 0.0316 µM, first compound 0.00316 µM): 99.6%
- viability, T/C (second compound 0.0316 µM, first compound 0.01 µM): 80%
- viability, T/C (second compound 0.0316 µM, first compound 0.0316 µM): 27.4%
- viability, T/C (second compound 0.0316 µM, first compound 0.1 µM): 6.64%
- viability, T/C (second compound 0.1 µM, first compound 0.000316 µM): 97.6%
- viability, T/C (second compound 0.1 µM, first compound 0.001 µM): 99%
- viability, T/C (second compound 0.1 µM, first compound 0.00316 µM): 87.1%
- viability, T/C (second compound 0.1 µM, first compound 0.01 µM): 85.2%
- viability, T/C (second compound 0.1 µM, first compound 0.0316 µM): 17.2%
- viability, T/C (second compound 0.1 µM, first compound 0.1 µM): 4.83%
- viability, T/C (second compound 0.316 µM, first compound 0.000316 µM): 97.1%
- viability, T/C (second compound 0.316 µM, first compound 0.001 µM): 95.4%
- viability, T/C (second compound 0.316 µM, first compound 0.00316 µM): 94.5%
- viability, T/C (second compound 0.316 µM, first compound 0.01 µM): 73.6%
- viability, T/C (second compound 0.316 µM, first compound 0.0316 µM): 9.3%
- viability, T/C (second compound 0.316 µM, first compound 0.1 µM): 3.79%
- viability, T/C (second compound 1 µM, first compound 0.000316 µM): 93.4%
- viability, T/C (second compound 1 µM, first compound 0.001 µM): 98.6%
- viability, T/C (second compound 1 µM, first compound 0.00316 µM): 88.6%
- viability, T/C (second compound 1 µM, first compound 0.01 µM): 51.5%
- viability, T/C (second compound 1 µM, first compound 0.0316 µM): 7.18%
- viability, T/C (second compound 1 µM, first compound 0.1 µM): 3.35%
- viability, T/C (second compound 3.16 µM, first compound 0.000316 µM): 97.2%
- viability, T/C (second compound 3.16 µM, first compound 0.001 µM): 89.5%
- viability, T/C (second compound 3.16 µM, first compound 0.00316 µM): 80.1%
- viability, T/C (second compound 3.16 µM, first compound 0.01 µM): 26%
- viability, T/C (second compound 3.16 µM, first compound 0.0316 µM): 4.8%
- viability, T/C (second compound 3.16 µM, first compound 0.1 µM): 2.64%
- viability, T/C (second compound 10 µM, first compound 0.000316 µM): 85.9%
- viability, T/C (second compound 10 µM, first compound 0.001 µM): 90%
- viability, T/C (second compound 10 µM, first compound 0.00316 µM): 65.6%
- viability, T/C (second compound 10 µM, first compound 0.01 µM): 16.4%
- viability, T/C (second compound 10 µM, first compound 0.0316 µM): 3.2%
- viability, T/C (second compound 10 µM, first compound 0.1 µM): 2.36%

From PubChem BioAssay AID1963432 (Molecular Pharmacology Branch, DTP, NCI, 2024)
